#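 1) Cells in 96-well plates. 2) Compound, 48 h, 5 concentrations. 3) Linear interpolation between surrounding doses. 4) Unreached endpoint = highest concentration. At the GI50, growth is halved.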 The source made the active and inactive calls. Rule as the data show it: active = GI50 up to about 1.1 µM and inactive = higher.
# Legend:
# Experiment in all cases: inhibition of tumour cell growth, NCI panel, 48 h
# [1] = test system: HOP-92
# [2] = test system: CAKI-1
# [3] = test system: OVCAR-3
# [4] = test system: SNB-19
# [5] = test system: A549
# [6] = test system: IGROV-1
# [7] = test system: HT-29
# [8] = test system: HCC 2998
# [9] = test system: A498
# [10] = test system: MCF7
# [11] = test system: T47D
# [12] = test system: HOP-62
# [13] = test system: NCI-H460
# [14] = test system: NCI-H23
# [15] = test system: U-251
# [16] = test system: RPMI-8226
# [17] = test system: MOLT-4
# [18] = test system: SK-MEL-2
# [19] = test system: SNB-75
# [20] = test system: SR
Compound,GI50 [1],GI50 [2],GI50 [3],GI50 [4],GI50 [5],GI50 [6],GI50 [7],GI50 [8],GI50 [9],GI50 [10],GI50 [11],GI50 [12],GI50 [13],GI50 [14],GI50 [15],GI50 [16],GI50 [17],GI50 [18],GI50 [19],GI50 [20]
CN1N=C(c2ccncc2)OC1c1ccc(Cl)c(Cl)c1 (configuration not stated),> 100 µM (inactive),> 100 µM (inactive),72.4 µM (inactive),> 100 µM (inactive),> 100 µM (inactive),> 100 µM (inactive),60.8 µM (inactive),> 100 µM (inactive),82 µM (inactive),> 100 µM (inactive),> 100 µM (inactive),> 100 µM (inactive),> 100 µM (inactive),> 100 µM (inactive),> 100 µM (inactive),> 100 µM (inactive),44.5 µM (inactive),> 100 µM (inactive),–,–
COC1(OC)CCN(Cc2ccccc2)C1=O,11.1 µM (inactive),3.89 µM (inactive),11.4 µM (inactive),17.8 µM (inactive),17.7 µM (inactive),13.9 µM (inactive),5.92 µM (inactive),18.2 µM (inactive),17.5 µM (inactive),4.39 µM (inactive),4.45 µM (inactive),20.6 µM (inactive),18.7 µM (inactive),20 µM (inactive),17.3 µM (inactive),6.32 µM (inactive),2.55 µM (inactive),15.4 µM (inactive),16.2 µM (inactive),–
O=C1c2ccccc2C(=O)N1CCc1ncc[nH]1,> 100 µM (inactive),> 100 µM (inactive),> 100 µM (inactive),> 100 µM (inactive),> 100 µM (inactive),> 100 µM (inactive),> 100 µM (inactive),–,–,> 100 µM (inactive),> 100 µM (inactive),–,> 100 µM (inactive),> 100 µM (inactive),–,> 100 µM (inactive),> 100 µM (inactive),> 100 µM (inactive),–,> 100 µM (inactive)
COC(=O)c1cc(OCc2cc(OCc3ccc(Br)cc3)cc(OCc3ccc(Br)cc3)c2)cc(OCc2cc(OCc3ccc(Br)cc3)cc(OCc3ccc(Br)cc3)c2)c1,> 100 µM (inactive),> 100 µM (inactive),> 100 µM (inactive),> 100 µM (inactive),> 100 µM (inactive),–,–,> 100 µM (inactive),> 100 µM (inactive),> 100 µM (inactive),> 100 µM (inactive),> 100 µM (inactive),> 100 µM (inactive),> 100 µM (inactive),> 100 µM (inactive),> 100 µM (inactive),> 100 µM (inactive),> 100 µM (inactive),> 100 µM (inactive),–
c1ccc2c(c1)c(N1CCCCC1)cc1nc3c(cc(N4CCCCC4)c4ccccc43)nc12,> 100 µM (inactive),> 100 µM (inactive),> 100 µM (inactive),> 100 µM (inactive),> 100 µM (inactive),> 100 µM (inactive),> 100 µM (inactive),> 100 µM (inactive),> 100 µM (inactive),> 100 µM (inactive),–,> 100 µM (inactive),> 100 µM (inactive),> 100 µM (inactive),> 100 µM (inactive),> 100 µM (inactive),> 100 µM (inactive),> 100 µM (inactive),11.9 µM (inactive),> 100 µM (inactive)
OCC1c2ccccc2-n2nc(-c3ccccc3)c(O)c21 (configuration not stated),16.9 µM (inactive),17.8 µM (inactive),26.7 µM (inactive),37.9 µM (inactive),44.2 µM (inactive),36.2 µM (inactive),30.6 µM (inactive),16.3 µM (inactive),–,14.4 µM (inactive),22.3 µM (inactive),41.9 µM (inactive),29.9 µM (inactive),54.7 µM (inactive),19.4 µM (inactive),–,31 µM (inactive),15.9 µM (inactive),68.9 µM (inactive),–
COC(=O)Nc1nc2cc(Oc3ccc4nc(NC(=O)OC)[nH]c4c3)ccc2[nH]1,6.56 µM (inactive),2.32 µM (inactive),0.149 µM (active),1.29 µM (inactive),2.25 µM (inactive),1.45 µM (inactive),1.14 µM (inactive),0.984 µM (active),–,–,2.59 µM (inactive),1.56 µM (inactive),1.36 µM (inactive),1.81 µM (inactive),0.681 µM (active),0.929 µM (active),1 µM (active),1.34 µM (inactive),0.701 µM (active),0.252 µM (active)
c1cc(C[S+]2CCCC2)oc1C[S+]1CCCC1,–,> 100 µM (inactive),> 100 µM (inactive),> 100 µM (inactive),> 100 µM (inactive),> 100 µM (inactive),> 100 µM (inactive),> 100 µM (inactive),53.6 µM (inactive),–,> 100 µM (inactive),> 100 µM (inactive),> 100 µM (inactive),> 100 µM (inactive),> 100 µM (inactive),–,> 100 µM (inactive),–,> 100 µM (inactive),–
COc1ccccc1N/C(SCc1ccccc1)=C(/C(Cl)=C(Cl)Cl)[N+](=O)[O-],–,28.8 µM (inactive),18.7 µM (inactive),39.4 µM (inactive),30.4 µM (inactive),–,20.3 µM (inactive),–,82.8 µM (inactive),25.9 µM (inactive),26.1 µM (inactive),28.6 µM (inactive),58.2 µM (inactive),16.1 µM (inactive),21.1 µM (inactive),26.6 µM (inactive),28.2 µM (inactive),29.6 µM (inactive),31.8 µM (inactive),–
COc1ccc(-n2sc3ncc(-c4ccccc4)cc3c2=O)cc1,42.5 µM (inactive),27.4 µM (inactive),20.3 µM (inactive),29.4 µM (inactive),35.9 µM (inactive),22.1 µM (inactive),–,92.7 µM (inactive),> 100 µM (inactive),28.6 µM (inactive),> 100 µM (inactive),> 100 µM (inactive),> 100 µM (inactive),23.3 µM (inactive),27.6 µM (inactive),18.2 µM (inactive),–,> 100 µM (inactive),34.5 µM (inactive),–
C(/C=N/N=C1NCCCCN1)=N\N=C1NCCCCN1,> 100 µM (inactive),> 100 µM (inactive),> 100 µM (inactive),> 100 µM (inactive),> 100 µM (inactive),> 100 µM (inactive),> 100 µM (inactive),> 100 µM (inactive),–,> 100 µM (inactive),> 100 µM (inactive),> 100 µM (inactive),> 100 µM (inactive),> 100 µM (inactive),> 100 µM (inactive),–,> 100 µM (inactive),–,> 100 µM (inactive),> 100 µM (inactive)
O=c1cc(-c2ccc(O)cc2)n(C2CC2)c2ccccc12,3.52 µM (inactive),4.42 µM (inactive),4.23 µM (inactive),5.08 µM (inactive),4.52 µM (inactive),5.3 µM (inactive),1.57 µM (inactive),–,–,4.66 µM (inactive),3.96 µM (inactive),4.41 µM (inactive),3.76 µM (inactive),8.73 µM (inactive),5.31 µM (inactive),3.35 µM (inactive),50.9 µM (inactive),2.77 µM (inactive),–,7.43 µM (inactive)
CO[C@H]1[C@@H](O)[C@@H](O)O[C@@H](O[C@H]2CC[C@@]3(C)[C@H](CC[C@@H]4[C@@H]3[C@H](O)C[C@]3(C)[C@@H](C5=CC(=O)OC5)CC[C@]43O)C2)[C@@H]1O,0.531 µM (active),0.111 µM (active),0.112 µM (active),0.692 µM (active),0.0491 µM (active),0.301 µM (active),0.435 µM (active),1.67 µM (inactive),0.184 µM (active),–,0.362 µM (active),0.124 µM (active),0.0895 µM (active),0.113 µM (active),0.305 µM (active),0.198 µM (active),0.0304 µM (active),0.299 µM (active),0.354 µM (active),0.21 µM (active)
CCOP(=O)(OCC)C(C)(C)N(C)/C(F)=N/C(F)(F)F,> 100 µM (inactive),> 100 µM (inactive),> 100 µM (inactive),–,> 100 µM (inactive),> 100 µM (inactive),> 100 µM (inactive),> 100 µM (inactive),–,> 100 µM (inactive),> 100 µM (inactive),> 100 µM (inactive),> 100 µM (inactive),> 100 µM (inactive),> 100 µM (inactive),> 100 µM (inactive),> 100 µM (inactive),> 100 µM (inactive),> 100 µM (inactive),> 100 µM (inactive)
CC(C)(C)[Si](C)(C)OCC1OC(n2ccc(=O)[nH]c2=O)C(O[Si](C)(C)C(C)(C)C)[C@]12O[C@@H]2CO (some centres not stated),15 µM (inactive),20.4 µM (inactive),14.9 µM (inactive),10.3 µM (inactive),10.9 µM (inactive),16.3 µM (inactive),10.6 µM (inactive),20.8 µM (inactive),18.6 µM (inactive),12.1 µM (inactive),–,16 µM (inactive),14 µM (inactive),14.1 µM (inactive),15.6 µM (inactive),55.3 µM (inactive),8.3 µM (inactive),14.7 µM (inactive),18.4 µM (inactive),3.61 µM (inactive)
COc1cccc2c1[C@H]1CO[C@H]3C4C[C@H](C(=O)O)C([C@@H](C2)N13)N4C (some centres not stated),1.66 µM (inactive),–,1.38 µM (inactive),2.91 µM (inactive),8.18 µM (inactive),4.51 µM (inactive),2.13 µM (inactive),2.58 µM (inactive),–,0.491 µM (active),0.242 µM (active),–,3.93 µM (inactive),1.79 µM (inactive),1.41 µM (inactive),–,1.69 µM (inactive),1.08 µM (active),1.48 µM (inactive),1.14 µM (inactive)

# — ChEMBL document CHEMBL1201862, “PubChem BioAssay data set” (2004)
